Measured values published in ChEMBL document CHEMBL1201861, “Genomics of Drug Sensitity in Cancer screening data, Wellcome Trust Sanger Institute”.

Experiments:
Assay in all cases: cells
KALS-1 = assay type: functional, cell-based, Homo sapiens; details: Homo sapiens, KALS-1; read-out: IC50;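 also: growth inhibition of KALS-1 cells, determined with a cell viability assay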
Description: SANGER: Inhibition of human KALS-1 cell growth in a cell viability assay.

ONS-76 = assay type: functional, cell-based, Homo sapiens; details: Homo sapiens, ONS-76;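 also: growth inhibition of human ONS-76 cells, read out with a cell viability assay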
Description: SANGER: Inhibition of human ONS-76 cell growth in a cell viability assay.

QIMR-WIL = assay type: functional, cell-based, Homo sapiens; details: Homo sapiens, QIMR-WIL;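 also: growth inhibition of QIMR-WIL cells, read out with a cell viability assay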
Description: SANGER: Inhibition of human QIMR-WIL cell growth in a cell viability assay.

EW-18 = assay type: functional, cell-based, Homo sapiens; details: Homo sapiens, EW-18; read-out: IC50;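 also: growth inhibition of EW-18 cells, read out by a cell viability assay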
Description: SANGER: Inhibition of human EW-18 cell growth in a cell viability assay.

EW-1 = assay type: functional, cell-based, Homo sapiens; details: Homo sapiens, EW-1
Description: SANGER: Inhibition of human EW-1 cell growth in a cell viability assay.

D-263MG = assay type: functional, cell-based, Homo sapiens; details: Homo sapiens, D-263MG
Description: SANGER: Inhibition of human D-263MG cell growth in a cell viability assay.

SW684 = assay type: functional, cell-based, Homo sapiens; details: Homo sapiens, SW684; read-out: IC50;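 also: growth inhibition of human SW684 cells, measured by a cell viability assay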
Description: SANGER: Inhibition of human SW684 cell growth in a cell viability assay.

RS4-11 = assay type: functional, cell-based, Homo sapiens; details: Homo sapiens, RS4-11;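 also: growth inhibition of RS4-11 cells, read out by a cell viability assay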
Description: SANGER: Inhibition of human RS4-11 cell growth in a cell viability assay.

A704 = assay type: functional, cell-based; details: Homo sapiens;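 also: growth inhibition of human A704 cells, read out with a cell viability assay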
Description: SANGER: Inhibition of human A704 cell growth in a cell viability assay.

TE-5 = assay type: functional, cell-based, Homo sapiens; details: Homo sapiens, TE-5;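 also: inhibition of cell growth, read out by a cell viability assay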
Description: SANGER: Inhibition of human TE-5 cell growth in a cell viability assay.

COLO-829 = assay type: functional, cell-based, Homo sapiens; details: Homo sapiens, COLO-829
Description: SANGER: Inhibition of human COLO-829 cell growth in a cell viability assay.

no-10 = assay type: functional, cell-based, Homo sapiens; details: Homo sapiens;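 also: growth inhibition of no-10 cells, read out with a cell viability assay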
Description: SANGER: Inhibition of human no-10 cell growth in a cell viability assay.

SK-NEP-1 = assay type: functional, cell-based, Homo sapiens; details: Homo sapiens, SK-NEP-1;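 also: growth inhibition of human SK-NEP-1 cells, read out by a cell viability assay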
Description: SANGER: Inhibition of human SK-NEP-1 cell growth in a cell viability assay.

GCIY = assay type: functional, cell-based, Homo sapiens; details: Homo sapiens, GCIY;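 also: growth inhibition of the human GCIY cell line, read out by a cell viability assay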
Description: SANGER: Inhibition of human GCIY cell growth in a cell viability assay.

MHH-PREB-1 = assay type: functional, cell-based, Homo sapiens; details: Homo sapiens, MHH-PREB-1;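 also: cell viability assay measuring inhibition of proliferation of human MHH-PREB-1 cells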
Description: SANGER: Inhibition of human MHH-PREB-1 cell growth in a cell viability assay.

HAL-01 = assay type: functional, cell-based, Homo sapiens; details: Homo sapiens, HAL-01;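 also: growth inhibition of human HAL-01 cells, read out with a cell viability assay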
Description: SANGER: Inhibition of human HAL-01 cell growth in a cell viability assay.

IST-MES1 = assay type: functional, cell-based, Homo sapiens; details: Homo sapiens, IST-MES1;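 also: growth inhibition of IST-MES1 cells, measured with a cell viability assay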
Description: SANGER: Inhibition of human IST-MES1 cell growth in a cell viability assay.

LB831-BLC = assay type: functional, cell-based, Homo sapiens; details: Homo sapiens, LB831-BLC;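 also: growth inhibition of LB831-BLC cells, read out with a cell viability assay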
Description: SANGER: Inhibition of human LB831-BLC cell growth in a cell viability assay.

C2BBe1 = assay type: functional, cell-based, Homo sapiens; details: Homo sapiens, C2BBe1;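 also: growth inhibition of C2BBe1 cells, read out through a viability assay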
Description: SANGER: Inhibition of human C2BBe1 cell growth in a cell viability assay.

A101D = assay type: functional, cell-based, Homo sapiens; details: Homo sapiens, A101D;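 also: growth inhibition of the cell line, measured with a viability assay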
Description: SANGER: Inhibition of human A101D cell growth in a cell viability assay.

NCI-H82 = assay type: functional, cell-based, Homo sapiens; details: Homo sapiens, NCI-H82;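 also: growth inhibition of NCI-H82 cells, measured with a cell viability readout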
Description: SANGER: Inhibition of human NCI-H82 cell growth in a cell viability assay.

C8166 = assay type: functional, cell-based, Homo sapiens; details: Homo sapiens, C8166;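 also: growth inhibition of human C8166 cells measured by a cell viability assay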
Description: SANGER: Inhibition of human C8166 cell growth in a cell viability assay.

LS-513 = assay type: functional, cell-based, Homo sapiens; details: Homo sapiens, LS-513
Description: SANGER: Inhibition of human LS-513 cell growth in a cell viability assay.

TE-6 = assay type: functional, cell-based, Homo sapiens; details: Homo sapiens, TE-6;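 also: growth inhibition of TE-6 cells, read out with a cell viability assay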
Description: SANGER: Inhibition of human TE-6 cell growth in a cell viability assay.

MEG-01 = assay type: functional, cell-based, Homo sapiens; details: Homo sapiens, MEG-01;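 also: growth inhibition of MEG-01 cells, read out by a cell viability assay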
Description: SANGER: Inhibition of human MEG-01 cell growth in a cell viability assay.

TGBC1TKB = assay type: functional, cell-based, Homo sapiens; details: Homo sapiens, TGBC1TKB;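 also: growth inhibition of TGBC1TKB cells, read out by a cell viability assay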
Description: SANGER: Inhibition of human TGBC1TKB cell growth in a cell viability assay.

OVCAR-4 = assay type: functional, cell-based, Homo sapiens; details: Homo sapiens, OVCAR-4;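 also: growth inhibition of human OVCAR-4 cells, measured with a cell viability assay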
Description: SANGER: Inhibition of human OVCAR-4 cell growth in a cell viability assay.

BB65-RCC = assay type: functional, cell-based, Homo sapiens; details: Homo sapiens, BB65-RCC;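 also: growth inhibition of the cell line, measured with a cell viability assay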
Description: SANGER: Inhibition of human BB65-RCC cell growth in a cell viability assay.

KNS-81-FD = assay type: functional, cell-based, Homo sapiens; details: Homo sapiens, KNS-81-FD;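 also: growth inhibition of KNS-81-FD cells, read out with a cell viability assay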
Description: SANGER: Inhibition of human KNS-81-FD cell growth in a cell viability assay.

DEL = assay type: functional, cell-based, Homo sapiens; details: Homo sapiens, DEL;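 also: growth inhibition of the human DEL cell line, read out with a cell viability assay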
Description: SANGER: Inhibition of human DEL cell growth in a cell viability assay.

DJM-1 = assay type: functional, cell-based, Homo sapiens; details: Homo sapiens, DJM-1;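 also: growth inhibition of human DJM-1 cells, read out by a cell viability assay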
Description: SANGER: Inhibition of human DJM-1 cell growth in a cell viability assay.

SH-4 = assay type: functional, cell-based; details: Homo sapiens;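 also: growth inhibition of SH-4 cells, read out with a cell viability assay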
Description: SANGER: Inhibition of human SH-4 cell growth in a cell viability assay.

ES8 = assay type: functional, cell-based, Homo sapiens; details: Homo sapiens, ES8;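 also: growth inhibition of human ES8 cells, read out with a cell viability assay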
Description: SANGER: Inhibition of human ES8 cell growth in a cell viability assay.

SCC-15 = assay type: functional, cell-based, Homo sapiens; details: Homo sapiens, SCC-15;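 also: growth inhibition of SCC-15 cells, read out with a cell viability assay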
Description: SANGER: Inhibition of human SCC-15 cell growth in a cell viability assay.

Mo = assay type: functional, cell-based, Homo sapiens; details: Homo sapiens, Mo
Description: SANGER: Inhibition of human Mo-T cell growth in a cell viability assay.

LOX IMVI = assay type: functional, cell-based, Homo sapiens; details: Homo sapiens, LOX IMVI
Description: SANGER: Inhibition of human LOXIMVI cell growth in a cell viability assay.

KS-1 = assay type: functional, cell-based; details: Homo sapiens;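 also: growth inhibition of KS-1 cells, read out with a cell viability assay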
Description: SANGER: Inhibition of human KS-1 cell growth in a cell viability assay.

ES6 = assay type: functional, cell-based; details: Homo sapiens;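 also: growth inhibition of human ES6 cells, read out with a cell viability assay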
Description: SANGER: Inhibition of human ES6 cell growth in a cell viability assay.

COLO-684 = assay type: functional, cell-based, Homo sapiens; details: Homo sapiens, COLO-684
Description: SANGER: Inhibition of human COLO-684 cell growth in a cell viability assay.

DMS-114 = assay type: functional, cell-based, Homo sapiens; details: Homo sapiens, DMS-114
MZ2-MEL = assay type: functional, cell-based, Homo sapiens; details: Homo sapiens, MZ2-MEL;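 also: growth inhibition of MZ2-MEL cells read out with a cell viability assay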
Description: SANGER: Inhibition of human MZ2-MEL cell growth in a cell viability assay.

TK-10 = assay type: functional, cell-based, Homo sapiens; details: Homo sapiens, TK-10;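 also: growth inhibition of TK-10 cells, read out in a cell viability assay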
Description: SANGER: Inhibition of human TK10 cell growth in a cell viability assay.

ETK-1 = assay type: functional, cell-based, Homo sapiens; details: Homo sapiens, ETK-1;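 also: growth inhibition of human ETK-1 cells, read out with a cell viability assay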
Description: SANGER: Inhibition of human ETK-1 cell growth in a cell viability assay.

Calu-6 = assay type: functional, cell-based, Homo sapiens; details: Homo sapiens, Calu-6;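 also: growth of human Calu-6 cells, read out by a cell viability assay, IC50 marking inhibition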
Description: SANGER: Inhibition of human Calu-6 cell growth in a cell viability assay.

IST-SL1 = assay type: functional, cell-based, Homo sapiens; details: Homo sapiens, IST-SL1;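 also: growth inhibition of human IST-SL1 cells, read out with a cell viability assay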
Description: SANGER: Inhibition of human IST-SL1 cell growth in a cell viability assay.

L-428 = assay type: functional, cell-based, Homo sapiens; details: Homo sapiens, L-428
Description: SANGER: Inhibition of human L-428 cell growth in a cell viability assay.

MZ7-mel = assay type: functional, cell-based, Homo sapiens; details: Homo sapiens, MZ7-mel;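 also: growth inhibition of human MZ7-mel cells, measured by a cell viability assay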
Description: SANGER: Inhibition of human MZ7-mel cell growth in a cell viability assay.

Ramos-2G6-4C10 = assay type: functional, cell-based, Homo sapiens; details: Homo sapiens, Ramos-2G6-4C10;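 also: growth inhibition of the cell line, measured by a cell viability read-out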
Description: SANGER: Inhibition of human Ramos-2G6-4C10 cell growth in a cell viability assay.

L-363 = assay type: functional, cell-based, Homo sapiens; details: Homo sapiens, L-363
Description: SANGER: Inhibition of human L-363 cell growth in a cell viability assay.

KM12 = assay type: functional, cell-based, Homo sapiens; details: Homo sapiens, KM12;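 also: KM12 cell growth inhibition, read out with a cell viability assay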
Description: SANGER: Inhibition of human KM12 cell growth in a cell viability assay.

Cc1ccc(-n2nc(C(C)(C)C)cc2NC(=O)Nc2ccc(OCCN3CCOCC3)c3ccccc23)cc1 [DORAMAPIMOD]
IC50 (KALS-1): > 10 µM | IC50 (ONS-76): > 10 µM | IC50 (QIMR-WIL): > 10 µM | IC50 (EW-18): > 10 µM | IC50 (EW-1): > 10 µM | IC50 (D-263MG): > 10 µM | IC50 (SW684): > 10 µM | IC50 (RS4-11): > 10 µM | IC50 (A704): > 10 µM | IC50 (TE-5): > 10 µM | IC50 (COLO-829): > 10 µM | IC50 (no-10): > 10 µM | IC50 (SK-NEP-1): > 10 µM | IC50 (GCIY): > 10 µM | IC50 (MHH-PREB-1): > 10 µM | IC50 (HAL-01): > 10 µM | IC50 (IST-MES1): 7.96 µM | IC50 (LB831-BLC): > 10 µM | IC50 (C2BBe1): > 10 µM | IC50 (A101D): > 10 µM | IC50 (NCI-H82): > 10 µM | IC50 (C8166): > 10 µM | IC50 (LS-513): > 10 µM | IC50 (TE-6): > 10 µM | IC50 (MEG-01): > 10 µM | IC50 (TGBC1TKB): > 10 µM | IC50 (OVCAR-4): > 10 µM | IC50 (BB65-RCC): > 10 µM | IC50 (KNS-81-FD): > 10 µM | IC50 (DEL): > 10 µM | IC50 (DJM-1): > 10 µM | IC50 (SH-4): > 10 µM | IC50 (ES8): > 10 µM | IC50 (SCC-15): > 10 µM | IC50 (Mo): > 10 µM | IC50 (LOX IMVI): > 10 µM | IC50 (KS-1): > 10 µM | IC50 (ES6): > 10 µM | IC50 (COLO-684): > 10 µM | IC50 (DMS-114): > 10 µM | IC50 (MZ2-MEL): > 10 µM | IC50 (TK-10): > 10 µM | IC50 (ETK-1): > 10 µM | IC50 (Calu-6): > 10 µM | IC50 (IST-SL1): > 10 µM | IC50 (L-428): > 10 µM | IC50 (MZ7-mel): > 10 µM | IC50 (Ramos-2G6-4C10): > 10 µM | IC50 (L-363): > 10 µM | IC50 (KM12): > 10 µM

CN(NC(=O)CC(=O)NN(C)C(=S)c1ccccc1)C(=S)c1ccccc1 [ELESCLOMOL]
IC50 (KALS-1): 0.0963 µM | IC50 (ONS-76): 0.0103 µM | IC50 (QIMR-WIL): 0.0329 µM | IC50 (EW-18): > 0.2 µM | IC50 (EW-1): 0.00524 µM | IC50 (D-263MG): > 0.2 µM | IC50 (SW684): > 0.2 µM | IC50 (RS4-11): > 0.2 µM | IC50 (A704): 0.0275 µM | IC50 (TE-5): 0.015 µM | IC50 (COLO-829): 0.0431 µM | IC50 (no-10): > 0.2 µM | IC50 (SK-NEP-1): 0.0761 µM | IC50 (GCIY): > 0.2 µM | IC50 (MHH-PREB-1): 0.0115 µM | IC50 (HAL-01): 0.128 µM | IC50 (IST-MES1): 0.0541 µM | IC50 (LB831-BLC): 0.0277 µM | IC50 (C2BBe1): 0.103 µM | IC50 (A101D): 0.0114 µM | IC50 (NCI-H82): > 0.2 µM | IC50 (C8166): > 0.2 µM | IC50 (LS-513): 0.082 µM | IC50 (TE-6): 0.139 µM | IC50 (MEG-01): 0.105 µM | IC50 (TGBC1TKB): 0.0333 µM | IC50 (OVCAR-4): 0.00587 µM | IC50 (BB65-RCC): 0.0242 µM | IC50 (KNS-81-FD): 0.0175 µM | IC50 (DEL): 0.0192 µM | IC50 (DJM-1): 0.0543 µM | IC50 (SH-4): > 0.2 µM | IC50 (ES8): 0.00132 µM | IC50 (SCC-15): 0.0256 µM | IC50 (Mo): > 0.2 µM | IC50 (LOX IMVI): 0.171 µM | IC50 (KS-1): 0.0138 µM | IC50 (ES6): 0.04 µM | IC50 (COLO-684): 0.00921 µM | IC50 (DMS-114): 0.00943 µM | IC50 (MZ2-MEL): > 0.2 µM | IC50 (TK-10): 0.0423 µM | IC50 (ETK-1): 0.035 µM | IC50 (Calu-6): > 0.2 µM | IC50 (IST-SL1): 0.0523 µM | IC50 (L-428): > 0.2 µM | IC50 (MZ7-mel): 0.0127 µM | IC50 (Ramos-2G6-4C10): 0.012 µM | IC50 (L-363): 0.0123 µM | IC50 (KM12): > 0.2 µM

CCCCCCCCCCCC1=C(O)C(=O)C=C(O)C1=O [EMBELIN]
IC50 (KALS-1): 14.9 µM | IC50 (ONS-76): 8.45 µM | IC50 (QIMR-WIL): 5.29 µM | IC50 (EW-18): 10.5 µM | IC50 (EW-1): 28.6 µM | IC50 (D-263MG): > 32 µM | IC50 (SW684): > 32 µM | IC50 (RS4-11): 10.5 µM | IC50 (A704): 10.9 µM | IC50 (TE-5): 9.42 µM | IC50 (COLO-829): 5.29 µM | IC50 (no-10): 13.9 µM | IC50 (SK-NEP-1): 15.1 µM | IC50 (GCIY): 10.1 µM | IC50 (MHH-PREB-1): 10.9 µM | IC50 (HAL-01): 25.8 µM | IC50 (IST-MES1): > 32 µM | IC50 (LB831-BLC): 12.6 µM | IC50 (C2BBe1): 13.9 µM | IC50 (A101D): 6.37 µM | IC50 (NCI-H82): > 32 µM | IC50 (C8166): 7.64 µM | IC50 (LS-513): > 32 µM | IC50 (TE-6): 24.3 µM | IC50 (MEG-01): 25.5 µM | IC50 (TGBC1TKB): 11 µM | IC50 (OVCAR-4): 12.3 µM | IC50 (BB65-RCC): 11.4 µM | IC50 (KNS-81-FD): 19.5 µM | IC50 (DEL): 10.4 µM | IC50 (DJM-1): 8.8 µM | IC50 (SH-4): 24.9 µM | IC50 (ES8): 14 µM | IC50 (SCC-15): 7.81 µM | IC50 (Mo): > 32 µM | IC50 (LOX IMVI): 17.5 µM | IC50 (KS-1): 14.5 µM | IC50 (ES6): 9.55 µM | IC50 (COLO-684): 20.6 µM | IC50 (DMS-114): > 32 µM | IC50 (MZ2-MEL): 6.33 µM | IC50 (TK-10): > 32 µM | IC50 (ETK-1): 9.75 µM | IC50 (Calu-6): 4.83 µM | IC50 (IST-SL1): > 32 µM | IC50 (L-428): 5.39 µM | IC50 (MZ7-mel): 9.78 µM | IC50 (Ramos-2G6-4C10): 17 µM | IC50 (L-363): 24.1 µM | IC50 (KM12): 13.5 µM
